Reference: ChEMBL document CHEMBL1138168, “Imidazo[1,2-a]pyrimidines as functionally selective GABA(A) ligands” (Bioorg Med Chem Lett, 2006)
Active and inactive are the calls of the source. The rule behind the calls is not given here.

Assays:
[1] = molecular target: T1, GABA-A receptor; alpha-1/beta-3/gamma-2 (Homo sapiens, UniProt P14867+P18507+P28472); assay: Displacement of [3H]Ro 15-1788 from recombinant human GABA-Aalpha1 receptor plus beta-3-gamma-2 expressed in L(tk-) cells; assay type: cell-based
T1 sequence (P14867 whole entry): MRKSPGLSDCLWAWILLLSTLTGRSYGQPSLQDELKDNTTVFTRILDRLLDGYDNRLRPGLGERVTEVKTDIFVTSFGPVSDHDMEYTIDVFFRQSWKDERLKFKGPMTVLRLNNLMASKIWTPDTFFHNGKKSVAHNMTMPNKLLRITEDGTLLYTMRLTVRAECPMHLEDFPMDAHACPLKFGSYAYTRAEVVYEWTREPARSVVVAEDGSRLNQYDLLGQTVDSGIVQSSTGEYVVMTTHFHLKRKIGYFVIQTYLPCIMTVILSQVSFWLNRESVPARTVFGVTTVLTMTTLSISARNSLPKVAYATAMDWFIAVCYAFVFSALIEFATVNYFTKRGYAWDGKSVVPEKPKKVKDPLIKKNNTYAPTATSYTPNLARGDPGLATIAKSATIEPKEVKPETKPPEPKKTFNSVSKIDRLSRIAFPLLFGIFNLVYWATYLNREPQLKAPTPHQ
T1 sequence (P18507 whole entry): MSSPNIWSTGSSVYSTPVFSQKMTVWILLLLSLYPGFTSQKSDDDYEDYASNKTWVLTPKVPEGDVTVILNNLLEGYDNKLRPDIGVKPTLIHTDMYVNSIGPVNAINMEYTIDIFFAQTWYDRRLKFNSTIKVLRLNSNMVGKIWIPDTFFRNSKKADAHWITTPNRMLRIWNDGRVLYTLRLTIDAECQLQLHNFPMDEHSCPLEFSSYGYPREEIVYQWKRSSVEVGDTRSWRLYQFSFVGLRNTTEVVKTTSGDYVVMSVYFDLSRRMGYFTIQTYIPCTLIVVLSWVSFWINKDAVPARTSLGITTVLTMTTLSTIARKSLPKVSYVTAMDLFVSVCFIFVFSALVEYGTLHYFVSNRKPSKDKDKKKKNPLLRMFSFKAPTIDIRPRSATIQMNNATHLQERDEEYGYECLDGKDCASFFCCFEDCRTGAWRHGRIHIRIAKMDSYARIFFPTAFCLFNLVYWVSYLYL
T1 sequence (P28472 whole entry): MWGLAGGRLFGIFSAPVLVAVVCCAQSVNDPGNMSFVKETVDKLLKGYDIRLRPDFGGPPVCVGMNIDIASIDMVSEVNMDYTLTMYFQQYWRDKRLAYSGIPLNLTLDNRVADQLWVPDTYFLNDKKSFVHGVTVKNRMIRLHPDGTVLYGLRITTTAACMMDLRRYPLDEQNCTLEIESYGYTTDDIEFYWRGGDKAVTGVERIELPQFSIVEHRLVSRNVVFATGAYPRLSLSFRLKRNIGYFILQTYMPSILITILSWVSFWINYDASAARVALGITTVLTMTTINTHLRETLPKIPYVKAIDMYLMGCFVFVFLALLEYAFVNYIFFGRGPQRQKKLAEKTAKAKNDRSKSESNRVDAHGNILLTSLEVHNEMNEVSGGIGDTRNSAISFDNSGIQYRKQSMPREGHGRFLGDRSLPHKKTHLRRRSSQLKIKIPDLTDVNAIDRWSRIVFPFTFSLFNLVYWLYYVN

[2] = molecular target: T2, GABA-A receptor; alpha-3/beta-3/gamma-2 (Homo sapiens, UniProt P18507+P28472+P34903); assay: Displacement of [3H]Ro 15-1788 from recombinant human GABA-Aalpha3 receptor plus beta-3-gamma-2 expressed in L(tk-) cells; assay type: cell-based
T2 sequence (P18507 whole entry): T1 sequence (P18507 whole entry)
T2 sequence (P28472 whole entry): T1 sequence (P28472 whole entry)
T2 sequence (P34903 whole entry): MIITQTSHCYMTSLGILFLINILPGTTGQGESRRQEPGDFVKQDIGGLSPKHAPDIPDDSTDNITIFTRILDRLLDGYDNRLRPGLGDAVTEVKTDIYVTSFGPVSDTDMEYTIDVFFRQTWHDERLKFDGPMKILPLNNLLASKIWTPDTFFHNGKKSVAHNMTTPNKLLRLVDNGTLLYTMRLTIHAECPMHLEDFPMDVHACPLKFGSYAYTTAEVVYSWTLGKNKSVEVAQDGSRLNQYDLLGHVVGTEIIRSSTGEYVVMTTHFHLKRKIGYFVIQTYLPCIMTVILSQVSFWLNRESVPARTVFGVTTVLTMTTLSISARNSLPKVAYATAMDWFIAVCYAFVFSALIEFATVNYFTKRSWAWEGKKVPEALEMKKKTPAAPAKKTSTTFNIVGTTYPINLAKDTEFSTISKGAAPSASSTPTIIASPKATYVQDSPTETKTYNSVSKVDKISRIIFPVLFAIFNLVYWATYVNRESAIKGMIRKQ

[3] = molecular target: T3, GABA-A receptor; alpha-1/beta-3/gamma-2 (Homo sapiens) (UniProt P14867+P18507+P28472); assay: Efficacy against recombinant human GABA-Aalpha1 receptor plus beta-3-gamma-2 as measured by modulation of chloride ion flux; assay type: functional
[4] = molecular target: T4, GABA-A receptor; alpha-3/beta-3/gamma-2 (Homo sapiens) (UniProt P18507+P28472+P34903); assay: Efficacy against recombinant human GABA-Aalpha3 receptor plus beta-3-gamma-2 as measured by modulation of chloride ion flux; assay type: functional
[5] = molecular target: T4, GABA-A receptor; alpha-3/beta-3/gamma-2 (Homo sapiens); assay: Efficacy against recombinant human GABA-Aalpha3 receptor plus beta-3-gamma-2 expressed in L(tk-) cells by whole cell patch clamp method; assay type: functional, cell-based
[6] = test system: Mus musculus; assay: Proconvulsant activity in Swiss Webster mice at 10 mg/kg, ip by pentylenetetrazole assay; assay type: ADME, organism-based; set-up: dose 10 mg/kg, route intraperitoneal; details: in vivo
[7] = molecular target: GABA-A receptor; alpha-5/beta-3/gamma-2 (Homo sapiens) (UniProt P18507+P28472+P31644); assay: Displacement of [3H]Ro 15-1788 from recombinant human GABA-Aalpha5 receptor plus beta3gamma2 expressed in L(tk-) cells; assay type: cell-based
[8] = Metabolism in dog liver microsomes at 1 uM
[9] = molecular target: T3, GABA-A receptor; alpha-1/beta-3/gamma-2 (Homo sapiens); assay: Efficacy against recombinant human GABA-Aalpha1 receptor plus beta-3-gamma-2 expressed in L(tk-) cells by whole cell patch clamp method; assay type: functional, cell-based
[10] = molecular target: GABA-A receptor; anion channel (Rattus norvegicus) (UniProt O09028+P15431+P18506+P18508+P19969+P20236+P23574+P23576+P28471+P28473+P30191+P62813+P63079+P63138+Q91ZM7+Q9ES14); assay: Receptor occupancy in vivo by displacement of [3H]Ro 15-1788 binding from GABA-A receptor in rat at 1 mg/kg, po; assay type: functional, organism-based; set-up: dose 1 mg/kg
[11] = Rat brain to plasma ratio at 1 mg/kg, po; assay type: ADME, organism-based; set-up: dose 1 mg/kg, route oral; details: brain and plasma
[12] = species: Homo sapiens; assay: Stability in human liver microsomes; assay type: ADME, Microsome
[13] = species: Canis familiaris; assay: Stability in dog liver microsomes; assay type: ADME, Canis lupus familiaris, Microsome
[14] = test system: Plasma; assay: Receptor occupancy in plasma of rat at 1 mg/kg, po; assay type: functional

Row | Structure (SMILES) | Ki [1] | Ki [2] | Efficacy [3] | Efficacy [4] | Efficacy [5] | further results
1 | FC(F)(F)c1ccn2c(-c3cc(Cl)ncn3)cnc2n1 | > 33 nM | > 33 nM | – | – | – | –
2 | FC(F)(F)c1ccn2c(-c3ccccn3)cnc2n1 | 9.1 nM | 11 nM | -40% | -7% | – | –
3 | FC(F)(F)c1ccn2c(-c3cc(Cl)ccn3)cnc2n1 | > 33 nM | > 33 nM | – | – | – | –
4 | FC(F)(F)c1ccn2c(-c3ccnc(Cl)n3)cnc2n1 | 0.93 nM | 2 nM | -22% | -19% | -24.9% | Activity [6]: Inverse agonist
5 | N#Cc1ccccc1-c1cccc(-c2cnc3nc(C(F)(F)F)ccn23)n1 | 0.36 nM | 0.46 nM | -8% | 10% | -22% | Activity [7]: Active; metabolized at 1 µM [8]: 15%
6 | N#Cc1ccccc1-c1nccc(-c2cnc3nc(C(F)(F)F)ccn23)n1 | 1 nM | 1.4 nM | -29% | -15% | – | Activity [7]: Active; metabolized at 1 µM [8]: 56%
7 | N#Cc1ccccc1-c1ccnc(-c2cnc3nc(C(F)(F)F)ccn23)c1 | > 33 nM | > 33 nM | – | – | – | –
8 | Fc1ccccc1-c1cc(-c2cnc3nc(C(F)(F)F)ccn23)ccn1 | 8.3 nM | 14 nM | 6% | 23% | – | –
9 | N#Cc1ccccc1-c1cccc(-c2cnc3nc(C(F)(F)F)ccn23)c1 | – | – | 10% | 53% | 59% | metabolized at 1 µM [8]: 100%; Efficacy [9]: 19%
10 | COc1ccccc1-c1cc(-c2cnc3nc(C(F)(F)F)ccn23)ccn1 | 5.8 nM | 6.1 nM | 35% | 54% | – | –
11 | Fc1cccc(-c2cc(-c3cnc4nc(C(F)(F)F)ccn34)ccn2)c1 | > 33 nM | > 33 nM | – | – | – | –
12 | COc1cccc(-c2cnc3nc(C(F)(F)F)ccn23)n1 | 1.2 nM | 1.7 nM | -22% | -9% | -51.6% | Efficacy [9]: -41.4%
13 | FC(F)(F)c1cccc(-c2cnc3nc(C(F)(F)F)ccn23)n1 | 0.31 nM | 0.88 nM | -24% | -40% | – | –
14 | COc1cc(-c2cnc3nc(C(F)(F)F)ccn23)ccn1 | 29 nM | > 33 nM | – | – | – | –
15 | N#Cc1ccccc1-c1ccnc(-c2cnc3nc(C(F)(F)F)ccn23)n1 | > 33 nM | > 33 nM | – | – | – | –
16 | N#Cc1ccccc1-c1cncc(-c2cnc3nc(C(F)(F)F)ccn23)c1 | 18 nM | > 33 nM | -55% | -39% | – | –
17 | FC(F)(F)c1ccn2c(-c3cccc(Br)n3)cnc2n1 | 0.31 nM | 0.68 nM | 11% | 2% | – | –
18 | N#Cc1cc(F)ccc1-c1cc(-c2cnc3nc(C(F)(F)F)ccn23)ccn1 | 0.99 nM | 2.2 nM | 9% | 21% | 22% | Activity [10]: 50%; Kp [11]: 0.73; Stability [12]: < 5%; Efficacy [9]: 0%; Stability [13]: < 5%; Activity [14]: 0.15 µM
19 | CCO/N=C(\C)c1ccc2c(c1)ncn2-c1cccc(-c2cccnc2)c1 | 1.9 nM | 13 nM | – | – | – | –
20 | N#Cc1ccccc1-c1cc(-c2cnc3nc(C(F)(F)F)ccn23)ccn1 | 2.5 nM | 2.9 nM | 4% | 43% | 45% | Activity [7]: Active; metabolized at 1 µM [8]: 4%; Efficacy [9]: 15%
